Test: Solubility (solvent listed in compound tables)
Assay type: physicochemical
[1] = solvents listed for the compound

| SOLUBILITY (solvent named, Table 3) | SMILES | further results |
| --- | --- | --- |
| – | Cc1ccc(Nc2ccnc(NCCNc3ccnc4cc(Cl)ccc34)n2)cc1 [DKG805] | SOLUBILITY (solvent named, Table 4): DMSO |
| – | Cc1cc(NCCCNc2ccnc3cc(Cl)ccc23)nc(NCCCCO)n1 [MT1-147] | SOLUBILITY [1]: MeOH, DMSO |
| – | OCCCCCNc1nccc(NCCCCNc2ccnc3cc(Cl)ccc23)n1 [MT1-162] | SOLUBILITY [1]: MeOH, DMSO |
| DMSO | OCCCCNc1nc(NCCCCNc2ccnc3cc(Cl)ccc23)nc(N2CCOCC2)n1 [SM 362] | – |
| DMSO | Clc1ccc2c(NCCNc3cc(Cl)nc(Cl)n3)ccnc2c1 [SM 695A] | – |
| DMSO | CCN1CCN(c2ccnc(NCCCNc3ccnc4cc(Cl)ccc34)n2)CC1 [SM 727] | – |
| DMSO | Clc1ccc2c(NCCNc3nccc(N4CCCCC4)n3)ccnc2c1 [SM 732] | – |
| DMSO | CCN1CCN(c2nc(C)cc(NCCCCNc3ccnc4cc(Cl)ccc34)n2)CC1 [SM 502] | – |
| DMSO | Cc1cc(N2CCN(c3ccnc4cc(Cl)ccc34)CC2)nc(NC2CCCCC2)n1 [ATH 241] | – |
| – | COc1ccc(Nc2cc(C)nc(NCCCNc3ccnc4cc(Cl)ccc34)n2)cc1 [DKG838] | SOLUBILITY (solvent named, Table 4): DMSO |
| DMSO | Clc1ccc2c(NCCCNc3cc(Cl)nc(N4CCOCC4)n3)ccnc2c1 [SM 712] | – |
| DMSO | COc1ccc(Nc2nc(NCCNc3c4ccc(Cl)cc4nc4ccc(OC)cc34)nc(N3CCCCC3)n2)cc1 [ATH 189] | – |
| – | Fc1ccc(Nc2ccnc(NCCCNc3ccnc4cc(Cl)ccc34)n2)cc1 [DKG818] | SOLUBILITY (solvent named, Table 4): DMSO |
| – | Cc1cc(NCCNc2ccnc3cc(Cl)ccc23)nc(NCCCO)n1 [MT1-186] | SOLUBILITY [1]: MeOH, DMSO |
| – | OCCCCCCNc1nccc(NCCCNc2ccnc3cc(Cl)ccc23)n1 [MT1-132] | SOLUBILITY [1]: MeOH, DMSO |
| DMSO | CN1CCN(c2cc(Cl)nc(NCCCNc3ccnc4cc(Cl)ccc34)n2)CC1 [SM 717] | – |
| DMSO | COc1ccc2nc3cc(Cl)ccc3c(NCCNc3nc(N4CCN(c5ccccc5)CC4)nc(N4CCN(c5ccccc5)CC4)n3)c2c1 [ATH 178] | – |
| – | COc1cc(Nc2ccnc(NCCCCNc3ccnc4cc(Cl)ccc34)n2)cc(OC)c1 [DKG831] | SOLUBILITY (solvent named, Table 4): DMSO |
| DMSO | COc1ccc(Nc2nc(NCCNCc3c4ccc(Cl)cc4nc4ccc(OC)cc34)nc(N3CCCCC3)n2)cc1 [ATH 191] | – |
| DMSO | OCCCNc1nccc(N2CCN(c3ccnc4cc(Cl)ccc34)CC2)n1 [ATH 255] | – |
| DMSO | Cc1cc(NCCCCCCNc2ccnc3cc(Cl)ccc23)nc(N2CCCCC2)n1 [SM 505] | – |
| DMSO | OCCNc1nc(NCCCNc2ccnc3cc(Cl)ccc23)nc(N2CCOCC2)n1 [SM 353] | – |
| DMSO | COc1cc(Nc2nc(NCCNCc3c4ccc(Cl)cc4nc4ccc(OC)cc34)nc(NC3CCCCC3)n2)cc(OC)c1 [ATH 194] | – |
| DMSO | Fc1ccc(Nc2nc(NCCCCNc3ccnc4cc(Cl)ccc34)nc(N3CCOCC3)n2)cc1 [SM 357] | – |
| DMSO | COc1cc(Nc2nc(NCCCNc3c4ccc(Cl)cc4nc4ccc(OC)cc34)nc(N3CCCCC3)n2)cc(OC)c1 [ATH 159] | – |
| DMSO | COc1ccc(Nc2nc(NCCNc3c4ccc(Cl)cc4nc4ccc(OC)cc34)nc(N3CCOCC3)n2)cc1 [ATH 182] | – |
